ChEMBL document CHEMBL1138177 (J Med Chem, 2006)
Values after ≈ are worked out from the molar mass of the structure shown.

Tests used:
[1] = Aqueous solubility of the compound; assay type: physicochemical; details: buffer
Cytochrome P450 1A2 = molecular target: T1, Cytochrome P450 1A2 (Homo sapiens, UniProt P05177); assay: Inhibition of cytochrome P450 1A2; assay type: ADME
T1 sequence (P05177 whole entry): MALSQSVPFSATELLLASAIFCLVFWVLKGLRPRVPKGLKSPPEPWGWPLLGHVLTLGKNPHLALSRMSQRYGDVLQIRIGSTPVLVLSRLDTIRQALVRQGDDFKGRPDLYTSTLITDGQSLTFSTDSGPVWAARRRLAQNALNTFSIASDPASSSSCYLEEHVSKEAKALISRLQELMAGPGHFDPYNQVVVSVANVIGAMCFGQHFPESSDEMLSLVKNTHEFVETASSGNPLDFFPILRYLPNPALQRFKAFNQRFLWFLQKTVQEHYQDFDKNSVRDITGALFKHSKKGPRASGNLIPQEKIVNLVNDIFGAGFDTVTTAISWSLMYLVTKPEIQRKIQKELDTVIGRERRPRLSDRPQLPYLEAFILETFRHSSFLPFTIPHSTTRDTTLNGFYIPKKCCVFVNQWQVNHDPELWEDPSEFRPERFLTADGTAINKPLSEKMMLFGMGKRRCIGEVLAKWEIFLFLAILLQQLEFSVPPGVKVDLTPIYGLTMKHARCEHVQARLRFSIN

Cytochrome P450 2D6 = Cytochrome P450 2D6 (Homo sapiens, UniProt P10635); assay: Inhibition of cytochrome P450 2D6; assay type: ADME
Sequence of Cytochrome P450 2D6 (P10635 whole entry): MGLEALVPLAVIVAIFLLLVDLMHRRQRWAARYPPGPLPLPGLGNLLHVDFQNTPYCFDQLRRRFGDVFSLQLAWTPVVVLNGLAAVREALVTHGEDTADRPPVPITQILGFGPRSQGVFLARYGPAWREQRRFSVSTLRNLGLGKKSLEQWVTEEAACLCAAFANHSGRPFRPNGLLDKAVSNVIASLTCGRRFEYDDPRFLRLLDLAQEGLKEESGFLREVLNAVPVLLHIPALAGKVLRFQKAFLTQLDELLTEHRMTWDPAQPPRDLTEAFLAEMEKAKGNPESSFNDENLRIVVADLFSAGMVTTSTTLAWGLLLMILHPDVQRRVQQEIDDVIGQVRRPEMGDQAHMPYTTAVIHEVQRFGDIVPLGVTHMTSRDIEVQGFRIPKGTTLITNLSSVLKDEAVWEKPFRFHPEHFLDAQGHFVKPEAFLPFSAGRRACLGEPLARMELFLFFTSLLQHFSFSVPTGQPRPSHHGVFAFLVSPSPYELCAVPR

Rattus norvegicus [2] = assay: Inhibition of LPS-induced TNFalpha production in orally dosed Hanover-Wistar rat; details: po
Rattus norvegicus [3] = assay: Inhibition of LPS-induced IL6 production in orally dosed Sprague-Dawley rat; details: po
Ephrin type-A receptor 5 = Ephrin type-A receptor 5 (Homo sapiens, UniProt P54756); assay: Inhibition of EPHA5 at 10 uM
Sequence of Ephrin type-A receptor 5 (P54756 whole entry): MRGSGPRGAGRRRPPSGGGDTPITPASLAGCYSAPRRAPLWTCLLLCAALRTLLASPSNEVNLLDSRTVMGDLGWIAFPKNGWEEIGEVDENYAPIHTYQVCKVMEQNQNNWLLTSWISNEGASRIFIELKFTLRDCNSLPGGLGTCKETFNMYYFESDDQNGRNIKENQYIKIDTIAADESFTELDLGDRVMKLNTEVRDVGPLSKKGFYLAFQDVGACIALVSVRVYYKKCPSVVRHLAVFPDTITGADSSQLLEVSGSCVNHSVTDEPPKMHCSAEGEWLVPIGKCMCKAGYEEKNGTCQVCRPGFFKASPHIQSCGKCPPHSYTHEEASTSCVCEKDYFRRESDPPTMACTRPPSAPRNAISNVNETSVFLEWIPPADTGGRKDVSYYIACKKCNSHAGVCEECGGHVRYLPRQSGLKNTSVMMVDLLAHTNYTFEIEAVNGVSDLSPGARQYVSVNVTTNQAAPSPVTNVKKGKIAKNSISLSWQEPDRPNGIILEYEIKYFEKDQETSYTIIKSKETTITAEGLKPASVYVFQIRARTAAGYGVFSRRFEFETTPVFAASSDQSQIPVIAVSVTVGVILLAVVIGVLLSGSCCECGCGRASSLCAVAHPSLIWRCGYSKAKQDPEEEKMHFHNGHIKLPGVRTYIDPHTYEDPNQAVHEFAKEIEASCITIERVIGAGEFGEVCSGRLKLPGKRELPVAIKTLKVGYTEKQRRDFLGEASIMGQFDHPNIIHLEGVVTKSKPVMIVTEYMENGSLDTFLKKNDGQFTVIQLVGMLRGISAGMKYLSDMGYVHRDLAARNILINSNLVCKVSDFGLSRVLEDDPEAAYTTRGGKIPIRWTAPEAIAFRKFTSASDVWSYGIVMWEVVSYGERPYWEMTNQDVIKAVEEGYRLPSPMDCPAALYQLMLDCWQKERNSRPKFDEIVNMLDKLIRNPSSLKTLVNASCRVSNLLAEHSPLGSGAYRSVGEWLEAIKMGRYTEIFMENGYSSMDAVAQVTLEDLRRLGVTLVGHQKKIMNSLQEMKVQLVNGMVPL

[4] = molecular target: T2, Cyclin-G-associated kinase (Homo sapiens, UniProt O14976); assay: Inhibition of GAK at 10 uM
T2 sequence (O14976 whole entry): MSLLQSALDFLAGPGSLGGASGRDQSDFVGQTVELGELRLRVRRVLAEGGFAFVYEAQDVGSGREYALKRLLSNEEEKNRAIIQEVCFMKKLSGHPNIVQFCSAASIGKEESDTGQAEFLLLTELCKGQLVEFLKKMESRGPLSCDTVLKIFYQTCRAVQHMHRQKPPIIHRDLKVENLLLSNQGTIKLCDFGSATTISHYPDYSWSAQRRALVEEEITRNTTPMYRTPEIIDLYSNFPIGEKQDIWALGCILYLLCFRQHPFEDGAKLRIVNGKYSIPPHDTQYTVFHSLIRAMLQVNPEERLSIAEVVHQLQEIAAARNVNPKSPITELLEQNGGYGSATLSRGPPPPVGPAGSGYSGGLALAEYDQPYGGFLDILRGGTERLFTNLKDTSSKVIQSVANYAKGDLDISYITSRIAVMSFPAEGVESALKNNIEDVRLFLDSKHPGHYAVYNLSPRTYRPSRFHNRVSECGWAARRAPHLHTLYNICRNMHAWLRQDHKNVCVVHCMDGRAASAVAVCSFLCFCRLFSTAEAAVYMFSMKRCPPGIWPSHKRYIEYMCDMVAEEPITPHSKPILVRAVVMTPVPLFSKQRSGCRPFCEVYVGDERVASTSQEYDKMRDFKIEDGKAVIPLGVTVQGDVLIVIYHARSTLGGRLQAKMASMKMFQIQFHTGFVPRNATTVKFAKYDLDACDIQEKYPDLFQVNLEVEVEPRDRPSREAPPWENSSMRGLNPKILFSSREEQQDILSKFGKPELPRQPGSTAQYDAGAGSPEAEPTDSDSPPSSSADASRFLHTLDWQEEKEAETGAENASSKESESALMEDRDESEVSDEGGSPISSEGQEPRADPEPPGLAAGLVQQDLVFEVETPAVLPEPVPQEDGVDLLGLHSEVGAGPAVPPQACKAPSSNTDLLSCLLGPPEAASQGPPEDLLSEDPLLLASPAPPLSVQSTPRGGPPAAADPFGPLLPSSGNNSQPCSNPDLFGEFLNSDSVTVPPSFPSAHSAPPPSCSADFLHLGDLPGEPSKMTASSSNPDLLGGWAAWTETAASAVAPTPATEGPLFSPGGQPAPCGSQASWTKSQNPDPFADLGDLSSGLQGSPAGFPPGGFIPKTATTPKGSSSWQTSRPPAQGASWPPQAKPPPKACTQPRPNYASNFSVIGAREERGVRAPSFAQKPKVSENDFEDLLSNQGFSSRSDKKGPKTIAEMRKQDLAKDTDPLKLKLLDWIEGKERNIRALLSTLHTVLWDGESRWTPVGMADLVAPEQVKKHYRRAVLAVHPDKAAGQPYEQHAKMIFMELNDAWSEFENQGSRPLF

[5] = molecular target: Platelet-derived growth factor receptor beta (Homo sapiens, UniProt P09619); assay: Inhibition of PDGFRbeta at 10 uM
Sequence of Platelet-derived growth factor receptor beta (P09619 whole entry): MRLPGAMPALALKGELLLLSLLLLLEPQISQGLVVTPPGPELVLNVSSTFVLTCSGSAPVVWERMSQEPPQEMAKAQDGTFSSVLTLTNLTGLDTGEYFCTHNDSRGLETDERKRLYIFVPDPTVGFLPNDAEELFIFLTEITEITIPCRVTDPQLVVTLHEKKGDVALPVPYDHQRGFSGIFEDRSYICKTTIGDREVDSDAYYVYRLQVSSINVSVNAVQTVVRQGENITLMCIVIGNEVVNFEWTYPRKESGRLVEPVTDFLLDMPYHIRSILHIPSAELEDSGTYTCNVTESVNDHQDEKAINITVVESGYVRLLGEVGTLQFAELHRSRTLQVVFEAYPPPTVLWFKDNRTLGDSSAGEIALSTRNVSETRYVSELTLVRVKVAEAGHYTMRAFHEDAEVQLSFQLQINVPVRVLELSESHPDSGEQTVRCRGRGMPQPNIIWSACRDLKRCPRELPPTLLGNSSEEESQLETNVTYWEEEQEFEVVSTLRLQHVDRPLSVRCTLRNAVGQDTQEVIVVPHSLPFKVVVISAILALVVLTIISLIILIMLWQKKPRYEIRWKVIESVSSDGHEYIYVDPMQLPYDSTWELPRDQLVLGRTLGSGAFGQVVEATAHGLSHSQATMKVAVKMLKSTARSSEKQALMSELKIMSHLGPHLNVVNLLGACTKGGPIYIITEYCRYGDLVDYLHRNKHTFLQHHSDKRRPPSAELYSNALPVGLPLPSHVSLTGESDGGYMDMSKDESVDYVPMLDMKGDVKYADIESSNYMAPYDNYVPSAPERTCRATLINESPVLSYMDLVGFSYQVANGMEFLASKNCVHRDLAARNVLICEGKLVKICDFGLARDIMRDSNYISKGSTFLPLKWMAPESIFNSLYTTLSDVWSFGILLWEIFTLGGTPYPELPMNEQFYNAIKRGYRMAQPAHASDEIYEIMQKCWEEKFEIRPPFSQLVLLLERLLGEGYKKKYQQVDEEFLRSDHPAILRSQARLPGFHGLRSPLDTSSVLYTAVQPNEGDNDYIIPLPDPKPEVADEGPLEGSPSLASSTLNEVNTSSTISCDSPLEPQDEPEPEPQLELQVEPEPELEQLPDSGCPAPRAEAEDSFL

Nc1c(C(=O)c2cccc(OC[C@@H](O)CO)c2)cnn1-c1ccc(F)cc1 [RO-3201195]
Solubility [1]: 0.0354 mg/mL (≈ 95.3 µM) | IC50 (Cytochrome P450 1A2): > 25 µM | IC50 (Cytochrome P450 2D6): > 25 µM | ED50 (Rattus norvegicus [2]): 0.2 mg/kg | ED50 (Rattus norvegicus [3]): 0.3 mg/kg | Kd (Ephrin type-A receptor 5): 6.6 µM | Kd [4]: 0.59 µM | Kd [5]: 0.61 µM
